Results as given in ChEMBL document CHEMBL1127398, “(-)-11-Hydroxy-7'-isothiocyanato-1',1'-dimethylheptyl-delta 8-THC: a novel, high-affinity irreversible probe for the cannabinoid receptor in the brain” (J Med Chem, 1994).

Target: Cannabinoid receptor (Rattus norvegicus, UniProt Q9QZN9+P20272)
Test: Tested for affinity of compound against cannabinoid receptor in rat forebrain membranes
Type: cell membranes, Membrane

CCc1cc(C(C)(C)CCCCCCN=C=S)cc2c1[C@@H]1CC(CO)=CC[C@H]1C(C)(C)O2
IC50: 0.0016 µM

CC1=CC2c3c(O)cc(CCCCN=[N+]=[N-])cc3OC(C)(C)[C@H]2CC1 (some centres not stated)
IC50: 0.031 µM
